In patent EP0330218B1, “Inhibitors of lysyl oxidase” (MERRELL DOW PHARMACEUTICALS INC., priority 1988, dated 1989):

Biological target: T1, Lysyl oxidase (Bos taurus, UniProt P33072)
T1 construct: The supernatant with lysyl oxidase activity is saved; from tissue; host or cells: bovine aorta (4 M urea extract)
T1 sequence (P33072 170-418): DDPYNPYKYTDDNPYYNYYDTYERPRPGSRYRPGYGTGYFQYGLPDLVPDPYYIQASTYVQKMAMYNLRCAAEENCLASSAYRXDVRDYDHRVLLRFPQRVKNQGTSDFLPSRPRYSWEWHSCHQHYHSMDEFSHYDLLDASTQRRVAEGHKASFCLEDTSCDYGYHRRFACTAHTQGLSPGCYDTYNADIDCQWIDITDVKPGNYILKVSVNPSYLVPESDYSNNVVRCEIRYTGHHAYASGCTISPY
Experiment: Lysyl oxidase inhibition assay (fluorometric, cadaverine substrate, homovanillic acid/horseradish peroxidase)
Assay type: biochemical
Conditions: lysyl oxidase preparation from bovine aorta, 10 minutes at 55°C, borate buffer pH = 8.2, read-out: IC₅₀
Experimental: Lysyl oxidase preparation is obtained from bovine aorta by the procedures modified from M. A. Williams and H. M. Kagan, Anal. Biochem. 149, 430 - 437 (1985) and H. M. Kagan and K. A. Sullivan, Methods in Enzyml. 82, 637 - 650 (1982). The aorta is obtained fresh on the day of the enzyme preparation and is maintained at 4°C for the duration of its use in the experiments. The aorta is ground fine and is homogenized for 90 seconds in buffer (2.5 ml of a buffer consisting of 16 mM potassium phosphate and 1 mM phenylmethylsulfonyl fluoride/g of tissue) with 0.15 M NaCl added, then the mixture is centrifuged (20 minutes at 11,000 x g). The homogenization followed by centrifugation procedure is repeated with buffer plus 0.15 M NaCl, buffer alone, and buffer plus 1 M urea. After homogenization in 1 M urea, the mixture is stirred for 1 hour prior to centrifugation. The resulting pellet is homogenized in buffer plus 4 M urea, stirred for 18 hours, and centrifuged. The supernatant with lysyl oxidase activity is saved. The tissue is homogenized in buffer plus 4 M urea, stirred overnight, and centrifuged twice more. The supernatants with lysyl oxidase activity are saved.
The assay is adopted from that of P. C. Trackman, et al., Anal. Biochem. 113, 336 - 342 (1981). Each assay consists of two tubes, one that contains 0.2 mM β-aminopropionitrile, BAPN, from the start and one to which BAPN is added to quench the reaction. Lysyl oxidase preparation (0.150 ml), urea (0.300 ml, 4 M), buffer (0.930 ml, 200mM borate at pH = 8.2), homovanillic acid (0.020 ml of 50 mM solution), and horseradish peroxidase (0.010 ml of Sigma Type II at 5 mg/ml protein) are incubated for 2 minutes at 55°C in a test tube. Cadaverine (0.100 ml of 150 mM) and test compound, if any, is added and the incubation continued at 55°C for an additional 10 minutes. The test tubes containing this mixture are then cooled in a ice bath after adding BAPN to any tubes not containing it. The difference in fluorescence (excitation 315 nm and emission 425 nm) between corresponding tubes that received BAPN at 0 minutes and at 10 minutes is a measure of enzyme activity. A standard curve to determine the amount of cadaverine converted by lysyl oxidase is prepared as follows. Assay mixtures containing BAPN are made up as described and known amounts of hydrogen peroxide are added simultaneously with cadaverine and the fluorescence changes after 10 minutes reaction are determined.
Using this method the lysyl oxidase inhibiting activity expressed as IC₅₀ (inhibitory concentration), that is the concentration of test compound required to inhibit the enzyme activity by 50 per cent, was determined for various compounds of this invention.

Q: For `COc1ccc(/C(=C\F)CN)cc1OC` [(E)-2-(3,4-Dimethoxyphenyl)-3-fluoroallylamine], which IC50 is on record?
A: 100 nM

Q: Which IC50 does the source give for `COc1ccc(CCC/C(=C\F)CN)cc1OC` [(E)-2-(3,4-Dimethoxyphenylpropyl)-3-fluoroallylamine] here?
A: 0.1 nM

Q: For `NC/C(=C/F)CCc1ccc(F)cc1` [(E)-2-(4-Fluorophenethyl)-3-fluoroallylamine], which IC50 is on record?
A: 0.1 nM

Q: `NC/C(=C\F)CSc1ccccc1` [(E)-2-(Thiophenoxymethyl)-3-fluoroallylamine] was tested. Which IC50 did it give?
A: 0.1 nM

Q: How did the IC50 turn out when `CC(C)C/C(=C\Cl)CN` [(E)-2-Isobutyl-3-chloroallylamine] was run?
A: 100 nM

Q: Which IC50 does the source give for `CC(C)C/C(=C\F)CN` [(E)-2-Isobutyl-3-fluoroallylamine] here?
A: 10 nM

Q: Which IC50 does the source give for `NC/C(=C/Cl)CCc1ccccc1` [(E)-2-Phenethyl-3-chloroallylamine] here?
A: 10 nM

Q: For `NC/C(=C/Cl)c1ccccc1` [(E)-2-Phenyl-3-chloroallylamine], which IC50 is on record?
A: 100 nM

Q: With `NC/C(=C/F)c1ccccc1` [(E)-2-Phenyl-3-fluoroallylamine] as the molecule, how does the IC50 read?
A: 1 nM

Q: `CCCCCCCCCCC/C(=C\F)CN` [(E)-2-Undecyl-3-fluoroallylamine] was tested. Which IC50 did it give?
A: 100 nM

Q: How did the IC50 turn out when `CCNC/C(=C/F)c1ccc(OC)c(OC)c1` [(E)-N-Ethyl-2-(3,4-dimethoxyphenyl)-3-fluoroallylamine] was run?
A: 1000 nM

Q: For `NC/C(=C/F)c1cccs1` [(Z)-2-(2-Thienyl)-3-fluoroallylamine], which IC50 is on record?
A: 1 nM

Q: With `NC/C(=C/F)COc1ccc(Cl)c(Cl)c1` [(Z)-2-(3,4-Dichlorophenoxymethyl)-3-fluoroallylamine] as the molecule, how does the IC50 read?
A: 1 nM
